Data reported in patent publication US12516293B2, “Reagents and methods with Wnt agonists and bioactive lipids for generating and expanding cardiomyocytes” (The Board of Trustees of the Leland Stanford Junior …, priority 2018, dated 2026).

Experiments:
Type in all cases: cell-based, human
[1] = test system: hiPSC-CMs; assay: Cell cycle activity in well-differentiated hiPSC-CMs (ki67, pHH3, cell count)
Description: To address this, well-differentiated hiPSC-CMs were generated (e.g. day 30 or later) using chemically-defined protocols (Burridge et al. 2014; Churko et al. 2013; Sharma et al. 2015) (Movie S1) and treated them with S1P/LPA or CHIR or both (FIG. 18A). The presence of S1P/LPA receptors in these cells was first validated (FIG. 21). Immunofluorescence staining was then performed for ki67, a marker of cell cycle activity, and phospho Histone H3 (pHH3), a mitosis marker, in cardiac troponin T (TnT) positive cells.

[2] = test system: hiPSC-CMs; assay: hiPSC-CM expansion upon serial passaging
[3] = test system: hiPSC-CMs; assay: ki67/pHH3 proliferation and binucleation of hiPSC-CMs (immunofluorescence)
Description: Immunohistochemistry was performed with the incubation of primary antibodies overnight followed by 2 hours of incubation with various Alexa fluorescence conjugated secondary antibodies. Images were made with confocal (Zeiss LSM 710) or regular immunofluorescence microscopy (Leica DM IL LED). Primaries used in this study were cardiac troponin T (MS-295, Fisher), Ki67 (ab15580, Abcam), pHH3 (#9701, Cell Signaling), aurora B (ab2254, Abcam), alpha sarcomeric actinin ([…], Sigma-Aldrich), MLC2V (ab48003, Abcam), phospo AKT […] (#9275, Cell Signaling). […] To examine this, the percentage was determined of troponin T (TnT) positive hiPSC-CMs that express the cell cycle marker ki67 or the mitosis marker phospho-histone H3 (pHH3) at each passage after treatment with CHIR or DMSO (CTR) (FIG. 2A-C). […] The short-term (24 hrs) changes were assessed in proliferation rate of day 12 hiPSC-CMs (P0) after treatment with CHIR-, CTR-, or C59, a specific inhibitor of Wnt signaling (FIG. 2I-J).

[4] = test system: hiPSC-CMs; assay: Real-time PCR / immunostaining of cardiac gene expression in hiPSC-CMs; conditions: CHIR treatment, qPCR
Description: For quantitative analysis of gene expression, RNA was extracted with a lysis buffer (Qiagen) from hiPSC-CMs and stored at −80° C. Total RNA from each sample was purified from cell lysate using a RNA purification kit (Qiagen). cDNA was made using iScript cDNA synthesis kit (BioRad). Quantitative PCR was performed using a 96-well thermocycler system (Biorad) with SYBR Green substrate (Affymetrix) for 40 cycles. All primers sequences were obtained from the PrimerBank (Massachusetts General Hospital/Harvard Medical School) online database. […] Day 12 hiPSC-CMs were cultured in CHIR continuously for 2 months with serial passaging followed by CHIR withdrawal for an additional month.

[5] = test system: TCF/LEF; assay: TOPFlash TCF/LEF luciferase reporter in day 12 hiPSC-CMs; conditions: P0 hiPSC-CMs, 24 hours
Description: Day 12 hiPSC-CMs were transfected for 48h with a TCF reporter plasmid (TOPflash M50, Addgene) or the mutant reporter plasmid (TOPflash M51, Addgene) and the use of Lipofectamine 3000 (Invitrogen). 72h after transfection cells were treated with various small molecules for 24h. Cells were lysed and mixed with luciferase substrate (Promega) and the firefly luciferase expression was measured with a 96-well micro plate reader (Fisher).

[6] = test system: hiPSC-CMs; assay: Sarcomere alignment and contractility on micropatterns
Description: Cells were plated on soft substrates with micropatterned proteins on top. After 3-6 days of culture high resolution movies (Sony Microscopy) were recorded for at least 10 individual cells per group and motion velocity analysis was processed digitally. After recordings, cells were fixed and used for immunohistochemistry and confocal imaging. Sarcomere alignment was quantified with Image J software. CM maturation is accompanied by the formation of highly structured sarcomere, bi- or multinucleation, and cell cycle exit (Bassat et al., 2017; Bersell et al., 2009; Senyo et al., 2014; Uygur and Lee, 2016). […] To address this, age-matched hiPSC-CMs exposed to media containing DMSO (CTR) were compared to ones that have undergone 3 passages in media containing 2.0 μM CHIR using various phenotypic assays of CM function. To assess sarcomere alignment, CHIR and CTR hiPSC-CMs on 7:1 aspect ratio micropatterns (Ribeiro et al., 2015) were cultured and immunostained with TnT and sarcomeric actinin antibodies.

[7] = test system: hiPSC-CMs; assay: Single cell RNA sequencing of day 12 hiPSC-CMs
Description: For the single cell gene expression replated hiPSC-CMs were treated at day 12 with DMSO, CHIR99021 or C59 for 24 hours. At day 13 cells were digested with TrypLE Select Enzyme for about 5 minutes and dissociated with gentle pipetting. […] Single cell analysis was performed with the Loupe Cell Browser software. To investigate the global transcriptional changes of hiPSC-CMs in response to gain and loss of Wnt signaling, single cell RNA sequencing was performed in day 12 hiPSC-CMs treated for 24 hours with either DMSO (CTR), CHIR or C59.

[8] = test system: hiPSCs; assay: hiPSC morphology, cell number and marker expression; conditions: 48-hour treatment of hiPSCs, immunostaining and qPCR
Description: The changes in gene expression was validated after treatment with bioactive lipids or CHIR from the microarray studies with immunostaining and quantitative PCR analysis (FIG. 17D-E).

[9] = test system: TCF/LEF; assay: TOPFlash TCF/LEF luciferase reporter in day 30 hiPSC-CMs; conditions: day 30 cardiomyocytes, 2-hour treatment
Description: […] and day 30 hiPSC-CMs were replated in 96-well plates and cultured for 2-3 days before transfection with Lipofectamine (Invitrogen) and TOPFlash (TCF/LEF) luciferase Wnt signaling reporter plasmid (M50, Addgene) at 100 ng/well. After 48 hours, media was changed, and cells were subjected to different treatments for 2 hours before lysis and luciferase (Promega) luminescence was measured with a standard luminescence plate reader. To determine the mechanism through which S1P/LPA regulate cell cycle activity in hiPSC-CMs, it was evaluated whether S1P and LPA treatment can directly stimulate Wnt/β-catenin signaling in day 30 cardiomyocytes using the TOPFlash (TCF/LEF-luciferase) reporter.

For `Cc1c[nH]c(-c2cnc(NCCNc3ccc(C#N)cn3)nc2-c2ccc(Cl)cc2Cl)n1` [CHIR99021], which “number of hiPSC-CMs” value ([1]; treatment alone, 48 hours) is on record?
The value was “increase in cell number”.

And the “number of bi- or multinucleated cardiomyocytes” value ([1]; two-day treatment)?
The value was “did not increase the number of bi- or multinucleated cardiomyocytes”.

And the “increase in the total cell number” value ([2]; 2.0 μM CHIR from day 12, serial passaging)?
Its value is “greater than 100 fold”.

What about the “increase in CM number” value ([2]; 2.0 μM CHIR from day 12, serial passaging, TnT+ cells vs DMSO) of the same compound?
Its value is “greater than 100 fold”.

And the cell death ([2]; 2.0 μM CHIR, Caspase 3 staining)?
The cell death was “without notable cell death”.

And the “number of passages possible” value ([2]; 2.0 μM CHIR, DMSO cells cease to proliferate after first passage)?
Its value is “up to 5 times”.

What about the “hiPSC-CMs generated from 2 million day 12 hiPSC-CMs” value ([2]; CHIR treatment with serial passaging) of the same compound?
The value was 300-900 million.

And the “time to confluence after passaging” value ([2]; CHIR-treated early passage hiPSC-CMs)?
The value was 5 to 7 days.

What about the “TnT purity during expansion” value ([2]; expansion of beating hiPSC-CMs) of the same compound?
Its value is > 95%.

What about the “CM purity with each passage (TnT+)” value ([2]; flow cytometry, vs DMSO which decreased) of the same compound?
The value was “maintain, if not slightly enrich”.

And the “extension of window of proliferation (ki67, pHH3)” value ([3]; CHIR vs CTR at each passage)?
Its value is “up to 5 passages”.

And the binucleation ([3]; compared with CTR or C59 treated cells)?
The binucleation was “less binucleation”.

And the “ki67 expression / proliferation rate” value ([3]; day 12 hiPSC-CMs (P0), 24 hrs treatment)?
Its value is “significant difference in ki67 expression”.

And the “Wnt signaling target gene expression (Axin2, LEF, CCND2)” value [4]?
The value was “induction of Wnt signaling target gene expression”.

What about the “markers of hiPSC-CM maturation (MYL2, MYH7, MYOM1)” value [4] of the same compound?
Its value is “down-regulated”.

And the “TCF/LEF activity (TOPFlash)” value [5]?
The value was “dramatic increase in TCF/LEF activity”.

And the “sarcomere alignment and organization” value ([6]; 3 passages in 2.0 μM CHIR vs age-matched CTR)?
The value was “markedly reduced alignment and organization of sarcomeres”.

What about the contractile force generation ([6]; CHIR-treated vs CTR cells) of the same compound?
The contractile force generation was “decreased force generation”.

And the “cardiac progenitor markers Isl1 and MESP1/2 expression” value ([7]; 24 hours CHIR)?
The value was “did not result in increased expression”.

And the “Wnt signaling target genes and cardiogenic transcription factors expression” value ([7]; 24 hours, CHIR vs CTR or C59)?
The value was “highly upregulated”.

What about the “mature cardiac genes expression” value ([7]; 24 hours, CHIR vs CTR or C59) of the same compound?
The value was “dramatically downregulated”.

And the “Brachyury T (Bry T) expression” value [8]?
Its value is “increase both VIM and Brachyury T (Bry T) expression”.

What about the VIM expression [8] of the same compound?
Its VIM expression is “increase both VIM and Brachyury T (Bry T) expression”.

And the “TCF/LEF-luciferase activity (TOPFlash)” value [9]?
The value was “activated”.
